We go through two molecules from ChEMBL document CHEMBL5346972, “Discovery of HDAC6, HDAC8, and 6/8 Inhibitors and Development of Cell-Based Drug Screening Models for the Treatment of TGF-β-Induced Idiopathic Pulmonary Fibrosis” (J Med Chem, 2023).

Series [1] is described as follows: in vitro. As to conditions: human.
Series [2] is described as follows: Metabolic stability in human liver microsomes assessed as parent compound remaining at 200 uM preincubated for 5 mins followed by NADPH and measured at 60 mins by LC-MS/MS analysis. In general terms: Liver microsomes are vesicles of endoplasmic reticulum, rich in cytochrome P450 enzymes.
For another series, the target named is T1, Histone deacetylase 11 (Homo sapiens, UniProt Q96DB2).
T1 sequence (Q96DB2 whole entry): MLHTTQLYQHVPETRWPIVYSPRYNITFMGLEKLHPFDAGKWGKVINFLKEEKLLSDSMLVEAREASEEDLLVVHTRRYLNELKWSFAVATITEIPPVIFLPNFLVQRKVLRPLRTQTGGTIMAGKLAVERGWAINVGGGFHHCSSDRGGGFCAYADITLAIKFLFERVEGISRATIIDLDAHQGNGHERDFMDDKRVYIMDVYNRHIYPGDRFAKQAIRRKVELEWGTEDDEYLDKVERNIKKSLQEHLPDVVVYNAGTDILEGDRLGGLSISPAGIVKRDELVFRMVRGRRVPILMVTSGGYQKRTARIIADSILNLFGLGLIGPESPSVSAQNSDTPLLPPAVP
The series is described as follows: Inhibition of human HDAC11 expressed in baculovirus expression system in Sf9 cells using Boc-Lys(trifluoroacetyl)-AMC fluorogenic peptide as substrate and measured after 2 hrs by fluorescence based analysis.

Series [3] is described as follows: in vitro. The note with it: human. The source holds these as a separate data set.
The test system of series [4] is NIH3T3. The series is described as follows: Antiproliferative activity against mouse NIH3T3 cells assessed as reduction in cell viability by measuring optimal working concentration incubated for 3 days by CCK-8 assay relative to control. The series is classed as functional. As to conditions: time 3 day. A general note: Tetrazolium assays rely on reduction of a dye to a coloured formazan, in cell work by metabolically active cells.

The target of another series is Histone deacetylase 2 (Homo sapiens, UniProt Q92769). The series is described as follows: Inhibition of human HDAC2 expressed in baculovirus expression system in Sf9 cells using RHKKAc (379 to 382 residues) fluorogenic peptide as substrate and measured after 2 hrs by fluorescence based analysis.
Sequence of Histone deacetylase 2 (Q92769 whole entry, the tested form may be a part): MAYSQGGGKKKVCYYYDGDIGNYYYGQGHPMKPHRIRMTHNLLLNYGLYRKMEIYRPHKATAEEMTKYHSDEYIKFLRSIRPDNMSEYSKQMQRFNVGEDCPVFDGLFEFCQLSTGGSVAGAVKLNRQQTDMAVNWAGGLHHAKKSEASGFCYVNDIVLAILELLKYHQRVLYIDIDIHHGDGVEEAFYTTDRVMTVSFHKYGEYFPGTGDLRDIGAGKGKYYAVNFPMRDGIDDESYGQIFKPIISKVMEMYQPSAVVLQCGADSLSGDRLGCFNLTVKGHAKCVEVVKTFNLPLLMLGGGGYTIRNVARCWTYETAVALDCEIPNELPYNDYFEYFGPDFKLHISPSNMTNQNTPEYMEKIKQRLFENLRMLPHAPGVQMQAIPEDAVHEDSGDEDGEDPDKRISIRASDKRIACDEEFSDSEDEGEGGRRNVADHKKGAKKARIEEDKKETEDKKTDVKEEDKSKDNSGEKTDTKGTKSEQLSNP
In the next series the target is Histone deacetylase 4 (Homo sapiens, UniProt P56524). The series is described as follows: Inhibition of human HDAC4 expressed in baculovirus expression system in Sf9 cells using Boc-Lys(trifluoroacetyl)-AMC fluorogenic peptide as substrate and measured after 2 hrs by fluorescence based analysis.
Sequence of Histone deacetylase 4 (P56524 whole entry): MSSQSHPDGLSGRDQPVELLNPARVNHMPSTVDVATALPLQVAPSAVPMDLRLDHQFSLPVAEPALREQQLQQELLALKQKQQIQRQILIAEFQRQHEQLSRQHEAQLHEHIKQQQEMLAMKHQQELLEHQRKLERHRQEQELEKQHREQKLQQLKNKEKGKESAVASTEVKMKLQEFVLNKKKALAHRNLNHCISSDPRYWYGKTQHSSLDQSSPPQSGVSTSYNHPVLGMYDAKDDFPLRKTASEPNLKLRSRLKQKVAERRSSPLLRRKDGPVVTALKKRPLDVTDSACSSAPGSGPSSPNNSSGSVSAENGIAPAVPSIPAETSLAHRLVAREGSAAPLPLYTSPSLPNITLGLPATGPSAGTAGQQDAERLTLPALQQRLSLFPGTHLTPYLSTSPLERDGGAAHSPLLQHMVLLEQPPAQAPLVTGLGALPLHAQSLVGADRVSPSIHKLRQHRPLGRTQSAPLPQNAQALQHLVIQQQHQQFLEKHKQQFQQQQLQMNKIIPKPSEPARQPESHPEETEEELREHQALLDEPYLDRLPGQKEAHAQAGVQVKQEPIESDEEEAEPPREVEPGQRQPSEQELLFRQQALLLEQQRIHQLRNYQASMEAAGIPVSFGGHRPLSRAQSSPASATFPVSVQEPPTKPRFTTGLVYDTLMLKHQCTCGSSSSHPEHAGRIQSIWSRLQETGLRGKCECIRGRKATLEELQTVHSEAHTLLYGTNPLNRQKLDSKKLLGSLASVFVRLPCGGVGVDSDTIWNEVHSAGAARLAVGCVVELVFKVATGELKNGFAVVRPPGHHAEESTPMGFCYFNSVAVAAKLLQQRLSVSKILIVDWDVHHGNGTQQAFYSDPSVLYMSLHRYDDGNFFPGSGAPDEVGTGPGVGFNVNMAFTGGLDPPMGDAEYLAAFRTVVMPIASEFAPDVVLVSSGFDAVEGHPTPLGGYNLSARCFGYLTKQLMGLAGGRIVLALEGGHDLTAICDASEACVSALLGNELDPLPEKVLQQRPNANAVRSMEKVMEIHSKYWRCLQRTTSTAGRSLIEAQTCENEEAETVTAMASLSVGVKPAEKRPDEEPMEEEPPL
Series [5] has as its system NIH3T3. The series is described as follows: Antiproliferative activity against mouse NIH3T3 cells assessed as reduction in cell viability incubated for 3 days by CCK-8 assay. The series is classed as functional, cell-based. As to conditions: NIH3T3, 72 h.
Another series has as its target Histone deacetylase 3 (Homo sapiens, UniProt O15379). The series is described as follows: Inhibition of human HDAC3 expressed in baculovirus expression system in Sf9 cells using RHKKAc (379 to 382 residues) fluorogenic peptide as substrate and measured after 2 hrs by fluorescence based analysis.
Series [6] deals with T2, Protein deacetylase HDAC6 (Homo sapiens, UniProt Q9UBN7).
T2 sequence (Q9UBN7 whole entry): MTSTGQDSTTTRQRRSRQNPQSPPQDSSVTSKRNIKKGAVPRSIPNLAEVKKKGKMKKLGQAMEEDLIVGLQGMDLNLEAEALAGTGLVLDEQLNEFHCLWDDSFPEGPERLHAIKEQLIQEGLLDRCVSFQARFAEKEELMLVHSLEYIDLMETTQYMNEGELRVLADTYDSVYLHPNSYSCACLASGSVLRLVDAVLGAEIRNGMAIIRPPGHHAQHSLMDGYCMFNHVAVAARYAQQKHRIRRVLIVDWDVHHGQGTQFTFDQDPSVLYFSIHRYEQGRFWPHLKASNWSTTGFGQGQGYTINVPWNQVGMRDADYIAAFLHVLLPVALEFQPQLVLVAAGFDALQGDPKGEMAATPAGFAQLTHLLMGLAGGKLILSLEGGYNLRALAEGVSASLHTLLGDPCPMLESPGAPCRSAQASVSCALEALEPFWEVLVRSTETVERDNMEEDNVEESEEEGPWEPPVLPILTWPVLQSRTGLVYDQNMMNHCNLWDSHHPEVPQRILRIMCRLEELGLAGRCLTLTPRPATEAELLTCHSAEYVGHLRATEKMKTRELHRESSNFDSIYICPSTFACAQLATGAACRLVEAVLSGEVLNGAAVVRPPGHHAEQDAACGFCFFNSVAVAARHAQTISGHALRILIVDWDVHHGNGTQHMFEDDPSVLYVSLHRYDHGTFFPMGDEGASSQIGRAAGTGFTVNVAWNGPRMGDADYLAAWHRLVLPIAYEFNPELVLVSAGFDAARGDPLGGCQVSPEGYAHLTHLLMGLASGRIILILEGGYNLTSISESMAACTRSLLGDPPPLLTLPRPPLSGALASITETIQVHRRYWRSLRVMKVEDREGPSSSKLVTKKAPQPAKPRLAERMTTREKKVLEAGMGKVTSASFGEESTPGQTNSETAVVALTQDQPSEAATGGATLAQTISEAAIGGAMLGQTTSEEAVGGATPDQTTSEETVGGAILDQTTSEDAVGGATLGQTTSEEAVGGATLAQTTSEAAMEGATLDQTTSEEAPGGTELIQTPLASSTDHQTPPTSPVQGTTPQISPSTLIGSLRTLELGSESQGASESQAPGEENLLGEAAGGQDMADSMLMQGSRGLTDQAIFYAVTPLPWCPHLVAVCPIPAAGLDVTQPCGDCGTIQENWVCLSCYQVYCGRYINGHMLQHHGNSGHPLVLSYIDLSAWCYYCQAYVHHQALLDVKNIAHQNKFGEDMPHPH
As to the kind of experiment: Inhibition of human HDAC6 expressed in baculovirus expression system in Sf9 cells using RHKKAc (379 to 382 residues) fluorogenic peptide as substrate and measured after 2 hrs by fluorescence based analysis.

Series [7] is described as follows: Antiproliferative activity against human Pulmonary fibroblast cells assessed as reduction in cell viability incubated for 3 days by CCK-8 assay. The series is classed as functional, cell-based. The note with it: 72 h.
Series [8] is described as follows: Antiproliferative activity against human Pulmonary fibroblast cells assessed as reduction in cell viability by measuring optimal working concentration incubated for 3 days by CCK-8 assay. The series is classed as functional. The note with it: time 3 day.
Another series has as its target Histone deacetylase 9 (Homo sapiens, UniProt Q9UKV0). The series is described as follows: Inhibition of human HDAC9 expressed in baculovirus expression system in Sf9 cells using Boc-Lys(trifluoroacetyl)-AMC fluorogenic peptide as substrate and measured after 2 hrs by fluorescence based analysis.
A further series deals with T3, Histone deacetylase 8 (Homo sapiens, UniProt Q9BY41).
T3 sequence (Q9BY41 whole entry): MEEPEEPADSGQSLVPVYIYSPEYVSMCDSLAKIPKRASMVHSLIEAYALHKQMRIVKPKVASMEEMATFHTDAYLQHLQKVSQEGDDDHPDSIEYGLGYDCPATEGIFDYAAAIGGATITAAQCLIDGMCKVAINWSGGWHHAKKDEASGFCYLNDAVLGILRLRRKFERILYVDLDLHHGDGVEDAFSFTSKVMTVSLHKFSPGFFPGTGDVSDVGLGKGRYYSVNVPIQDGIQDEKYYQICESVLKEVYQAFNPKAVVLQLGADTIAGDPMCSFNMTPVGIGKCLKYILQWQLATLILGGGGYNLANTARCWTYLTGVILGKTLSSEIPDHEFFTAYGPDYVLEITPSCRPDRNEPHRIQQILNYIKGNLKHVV
The series is described as follows: Inhibition of human HDAC8 expressed in baculovirus expression system in Sf9 cells using RHKAcKAc (379 to 382 residues) fluorogenic peptide as substrate and measured after 2 hrs by fluorescence based analysis.

For another series, the target named is Histone deacetylase 5 (Homo sapiens, UniProt Q9UQL6). The series is described as follows: Inhibition of human HDAC5 expressed in baculovirus expression system in Sf9 cells using Boc-Lys(trifluoroacetyl)-AMC fluorogenic peptide as substrate and measured after 2 hrs by fluorescence based analysis.
Sequence of Histone deacetylase 5 (Q9UQL6 whole entry): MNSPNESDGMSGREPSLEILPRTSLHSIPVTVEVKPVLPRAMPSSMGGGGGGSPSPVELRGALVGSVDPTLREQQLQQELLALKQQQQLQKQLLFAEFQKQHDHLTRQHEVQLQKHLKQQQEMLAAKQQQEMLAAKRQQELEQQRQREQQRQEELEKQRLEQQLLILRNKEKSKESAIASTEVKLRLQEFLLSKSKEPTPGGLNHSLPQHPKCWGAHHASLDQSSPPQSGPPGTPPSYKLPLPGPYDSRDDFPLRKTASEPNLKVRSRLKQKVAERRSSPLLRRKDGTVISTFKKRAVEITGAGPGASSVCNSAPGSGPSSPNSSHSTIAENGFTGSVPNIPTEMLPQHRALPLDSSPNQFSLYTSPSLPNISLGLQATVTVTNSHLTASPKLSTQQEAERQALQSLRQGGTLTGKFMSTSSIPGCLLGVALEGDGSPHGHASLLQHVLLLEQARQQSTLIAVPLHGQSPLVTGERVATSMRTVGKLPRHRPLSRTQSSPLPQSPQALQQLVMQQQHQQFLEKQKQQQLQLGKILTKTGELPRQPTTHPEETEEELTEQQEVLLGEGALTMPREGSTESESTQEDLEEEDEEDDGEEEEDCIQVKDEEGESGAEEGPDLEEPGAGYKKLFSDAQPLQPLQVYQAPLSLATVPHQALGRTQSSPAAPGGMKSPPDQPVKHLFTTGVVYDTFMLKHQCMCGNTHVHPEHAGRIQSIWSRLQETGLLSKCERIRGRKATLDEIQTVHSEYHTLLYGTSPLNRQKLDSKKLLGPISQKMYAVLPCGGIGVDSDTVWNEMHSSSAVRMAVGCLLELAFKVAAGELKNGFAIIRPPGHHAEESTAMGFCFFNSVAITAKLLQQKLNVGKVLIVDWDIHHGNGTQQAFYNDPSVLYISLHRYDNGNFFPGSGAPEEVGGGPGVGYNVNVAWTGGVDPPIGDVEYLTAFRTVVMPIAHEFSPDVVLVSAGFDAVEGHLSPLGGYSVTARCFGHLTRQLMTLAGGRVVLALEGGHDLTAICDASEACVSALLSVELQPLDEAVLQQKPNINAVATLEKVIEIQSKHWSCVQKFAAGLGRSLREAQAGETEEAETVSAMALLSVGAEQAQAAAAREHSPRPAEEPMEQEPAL
Series [9] is described as follows: in vitro. As to conditions: human, Caco-2.
Description: Apparent permeability across apical to basolateral side in human Caco-2 cells at 10 uM preincubated for 10mins followed by compound addition and measured after 90 mins by LC-MS/MS analysis
The target in another series is Histone deacetylase 1 (Homo sapiens, UniProt Q13547). As to the kind of experiment: Inhibition of human HDAC1 expressed in baculovirus expression system in Sf9 cells using RHKKAc (379 to 382 residues) fluorogenic peptide as substrate and measured after 2 hrs by fluorescence based analysis.
Sequence of Histone deacetylase 1 (Q13547 whole entry, the tested form may be a part): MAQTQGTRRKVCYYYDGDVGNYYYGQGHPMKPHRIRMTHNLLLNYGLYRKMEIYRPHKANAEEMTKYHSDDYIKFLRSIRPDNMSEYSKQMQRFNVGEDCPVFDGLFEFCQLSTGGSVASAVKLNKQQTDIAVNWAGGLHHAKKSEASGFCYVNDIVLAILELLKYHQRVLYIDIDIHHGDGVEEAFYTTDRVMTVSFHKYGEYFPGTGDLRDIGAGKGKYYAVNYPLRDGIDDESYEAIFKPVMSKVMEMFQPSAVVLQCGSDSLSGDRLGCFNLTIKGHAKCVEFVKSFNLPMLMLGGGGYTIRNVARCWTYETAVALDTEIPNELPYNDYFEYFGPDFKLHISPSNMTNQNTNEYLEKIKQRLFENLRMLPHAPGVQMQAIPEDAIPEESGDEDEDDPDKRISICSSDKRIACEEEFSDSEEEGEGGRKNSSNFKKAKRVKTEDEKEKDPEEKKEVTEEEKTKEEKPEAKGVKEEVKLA

A value given as a limit tells only on which side of the number the result lay.

Sequence of Histone deacetylase 9 (Q9UKV0 whole entry): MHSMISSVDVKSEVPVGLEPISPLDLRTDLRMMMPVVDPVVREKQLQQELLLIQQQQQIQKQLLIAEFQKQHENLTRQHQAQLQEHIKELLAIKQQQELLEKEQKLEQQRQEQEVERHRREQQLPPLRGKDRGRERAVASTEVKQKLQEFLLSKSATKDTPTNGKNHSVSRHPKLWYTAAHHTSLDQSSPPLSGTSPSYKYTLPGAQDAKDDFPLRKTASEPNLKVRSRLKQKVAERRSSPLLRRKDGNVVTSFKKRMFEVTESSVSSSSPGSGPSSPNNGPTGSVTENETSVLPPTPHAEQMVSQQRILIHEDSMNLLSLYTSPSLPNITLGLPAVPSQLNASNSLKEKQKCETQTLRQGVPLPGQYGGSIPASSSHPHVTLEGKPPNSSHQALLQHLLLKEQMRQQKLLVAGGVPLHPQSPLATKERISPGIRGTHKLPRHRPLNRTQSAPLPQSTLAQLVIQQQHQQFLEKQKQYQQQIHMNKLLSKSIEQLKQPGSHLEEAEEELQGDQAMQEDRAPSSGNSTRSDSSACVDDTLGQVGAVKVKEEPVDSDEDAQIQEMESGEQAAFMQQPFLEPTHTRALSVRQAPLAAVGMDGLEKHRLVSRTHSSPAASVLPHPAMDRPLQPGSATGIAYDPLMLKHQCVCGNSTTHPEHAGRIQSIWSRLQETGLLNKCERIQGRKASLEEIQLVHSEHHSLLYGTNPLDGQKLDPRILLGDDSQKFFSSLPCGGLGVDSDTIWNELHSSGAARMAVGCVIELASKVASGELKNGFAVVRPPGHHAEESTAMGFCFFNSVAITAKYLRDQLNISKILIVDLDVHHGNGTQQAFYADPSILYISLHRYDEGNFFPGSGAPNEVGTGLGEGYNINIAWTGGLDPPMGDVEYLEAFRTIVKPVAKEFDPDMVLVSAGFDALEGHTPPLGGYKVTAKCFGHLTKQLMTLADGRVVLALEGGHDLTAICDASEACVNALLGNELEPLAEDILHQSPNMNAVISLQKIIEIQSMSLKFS
Sequence of Histone deacetylase 3 (O15379 whole entry, the tested form may be a part): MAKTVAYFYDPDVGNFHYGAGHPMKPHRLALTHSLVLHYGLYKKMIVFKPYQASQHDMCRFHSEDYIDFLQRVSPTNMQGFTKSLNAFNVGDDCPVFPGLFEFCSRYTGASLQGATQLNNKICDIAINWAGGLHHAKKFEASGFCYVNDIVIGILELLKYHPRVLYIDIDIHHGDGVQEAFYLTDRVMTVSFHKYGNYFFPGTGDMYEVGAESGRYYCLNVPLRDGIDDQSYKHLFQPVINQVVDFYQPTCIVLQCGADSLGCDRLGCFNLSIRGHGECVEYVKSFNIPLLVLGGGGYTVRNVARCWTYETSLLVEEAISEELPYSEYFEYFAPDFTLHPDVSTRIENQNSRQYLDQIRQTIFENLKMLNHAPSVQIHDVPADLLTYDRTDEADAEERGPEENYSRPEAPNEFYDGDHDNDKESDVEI

`Cc1nc2cc(/C=C/C(=O)NO)ccc2c(=O)n1-c1ccccc1` had a half-life at 1 h, 200 µM in “in vitro [1]” (microsomes) of more than 3.11 h. Moreover, in series [2] (microsomes), the fraction remaining at 1 h, 200 µM was determined as 89.6%. Moreover, the concentration for half-maximal inhibition (IC50) is 4.7 µM against Histone deacetylase 11; 7.38 µM against Histone deacetylase 2; 30 µM against Histone deacetylase 4; more than 40 µM in the series with NIH3T3 [5]; 1.59 µM against Histone deacetylase 3; 0.062 µM in [6]. The IC50 is more than 40 µM in [7], 30 µM on Histone deacetylase 9, 1.55 µM against Histone deacetylase 8 and 8.41 µM on Histone deacetylase 5. Further, the CLint scaled at 1 h, 200 µM in “in vitro [3]” (microsomes) was less than 0.366 L/h/kg. Further, the MEC is 20 µM with NIH3T3 [4] and 10 µM in [8].
In turn, `O=C(NO)c1ccc(Cn2c(=O)[nH]c(=O)c3cccc(Cl)c32)cc1` displayed a half-life at 1 h, 200 µM in “in vitro [1]” (liver microsomes) of more than 3.11 h. In addition, the share remaining at 1 h, 200 µM in series [2] (liver microsomes) worked out at 100%. Also, the IC50 on Histone deacetylase 11 was determined as 0.812 µM; against Histone deacetylase 2, 0.378 µM; at Histone deacetylase 4, 0.516 µM; in the series on NIH3T3 [5], 18.6 µM; against Histone deacetylase 3, 0.302 µM; in series [6] it was 0.01 µM. For the same molecule, the 50% inhibitory concentration (IC50) stood at 8.82 µM in series [7]; 0.19 µM against Histone deacetylase 1; 0.431 µM on Histone deacetylase 9; 0.137 µM on Histone deacetylase 8; 0.211 µM at Histone deacetylase 5. Besides, the intrinsic metabolic clearance (CLint scaled) at 1 h, 200 µM in the series “in vitro [3]” (liver microsomes) is less than 0.366 L/h/kg. The MEC in the series on NIH3T3 [4] amounted to 9.7 µM; in series [8], 10 µM. The molecule further registered a Papp A→B at 1.5 h, 10 µM in the series “in vitro [9]” of 14 nm/s.

One may read the half-life as the time in which the quantity being followed falls by half. Higher therefore signals slow loss. A word on the fraction remaining: it is what is left of the initial amount, in per cent. Usually IC50 stands for the concentration that gives 50% inhibition. For orientation: CLint scaled means a measure of how fast metabolising enzymes remove a compound, apart from limits set by blood flow. As a reminder, the Papp A→B is the apparent permeability from the apical to the basolateral side of a cell layer. Higher therefore signals ready permeation.
